Reference: patent US9453226B2, “Protection of cells from Alu-RNA-induced degeneration and inhibitors for protecting cells” (UNIVERSITY OF KENTUCKY RESEARCH FOUNDATION, priority 2011, dated 2016)
Entries after “also recorded” stand apart in the source; their conditions may differ. Where two headings read alike, the source gives them in different places. *: point of attachment. Cbz = O=C(OCc1ccccc1)*; CH2F = FC*

Key:
RPE [1] = assay: Alu RNA-induced RPE degeneration in wild-type mice, inhibitors given intravitreously; format: in vivo; conditions: WT mice, subretinal Alu RNA, inhibitor intravitreous
Method: (§1) Subretinal injection and imaging. Subretinal injections (1 μL) were performed using a Pico-Injector (PLI-100, Harvard Apparatus). Plasmids were transfected in vivo using 10% Neuroporter (Genlantis). Fundus imaging was performed on a TRC-50 IX camera (Topcon) linked to a digital imaging system (Sony). RPE flat mounts were immunolabeled using antibodies against zonula occludens-1 (Invitrogen).
(§2) Retinal photographs of dilated mouse eyes were taken with a TRC-50 IX camera (Topcon) linked to a digital imaging system (Sony).
(§3) Human eyes fixed in 2-4% paraformaldehyde were prepared as eyecups, cryoprotected in 30% sucrose, embedded in optimal cutting temperature compound (Tissue-Tek OCT; Sakura Finetek), and cryosectioned into 10 μm sections. Depigmentation was achieved using 0.25% potassium permanganate and 0.1% oxalic acid. Immunohistochemical staining was performed with the rabbit antibody against NLRP3 (1:100, Sigma Aldrich) or rabbit antibody against Caspase-1 (prediluted, AbCam). Isotype IgG was substituted for the primary antibody to assess the specificity of the staining. Bound antibody was detected with biotin-conjugated secondary antibodies, followed by incubation with ABC reagent and visualized by Vector Blue (Vector Laboratories). Levamisole (Vector Laboratories) was used to block endogenous alkaline phosphatase activity. Slides were washed in PBS, counterstained with neutral red (Fisher Scientific), rinsed with deionized water, air dried, and then mounted in Vectamount (Vector Laboratories). Fluorescent labeling of human tissue was performed with the rabbit antibody against PYCARD (1:50, Clone N-15, Santa Cruz Biotechnology) Immunolabeling was visualized by fluorescently conjugated anti-rabbit secondary antibody (Invitrogen). Tissue autofluorescence was quenched by incubating the sections in 0.3% Sudan black (Fisher Scientific). Sections were mounted in Vectashield with DAPI (Vector Laboratories). Mouse RPE/choroid flat mounts were fixed with 4% paraformaldehyde or 100% methanol, stained with rabbit antibodies against human zonula occludens-1 (1:100, Invitrogen) and visualized with Alexa594 (Invitrogen). All images were obtained using the Leica SP-5 or Zeiss Axio Observer Z1 microscopes.
(§4) Subretinal injections (1 μL) in mice were performed using a Pico-Injector (PLI-100, Harvard Apparatus). In vivo transfection of plasmids coding for two different Alu sequences (pAlu) or empty control vector (pNull) (Bennett et al., 2008; Kaneko et al., 2011; Shaikh et al., 1997) was achieved using 10% Neuroporter (Genlantis). AAV1-BEST1-Cre (Alexander and Hauswirth, 2008) or AAV1-BEST1-GFP were injected at 1.0×10^11 pfu/mL and in vitro transcribed Alu RNA was injected at 0.3 mg/mL.
(§5) siRNAs formulated in siRNA buffer (20 mM KCL, 0.2 mM MgCl2 in HEPES buffer at pH 7.5; Dharmacon) or phosphate buffered saline (PBS; Sigma-Aldrich); the TLR4 antagonist Ultra Pure Rhodobacter sphaeroides LPS (LPS-RS, InvivoGen), a peptide inhibitor of MyD88 homodimerization IMG-2005 (IMGENEX), control inhibitor (IMGENEX), recombinant IL-18 (Medical & Biological Laboratories), neutralizing rat antibodies against mouse IL-1β (IMGENEX), neutralizing rat antibodies against mouse IL-18 (Medical & Biological Laboratories), isotype control IgGs (R&D Systems or eBioscience as appropriate), Caspase-1 inhibitor Z-WEHD-FMK (R&D Systems), Caspase control inhibitor Z-FA-FMK (R&D Systems), DPI (Enzo Life Sciences), Mito-TEMPO (Enzo Life Sciences), MitoQ and dTPP (both adsorbed to cyclodextrin and provided by M.P. Murphy, MRC Mitochondrial Biology Unit), and gp91ds-tat and scrambled gp91 ds-tat (both Anaspec), were dissolved in phosphate buffered saline (PBS; Sigma-Aldrich) or dimethyl sulfoxide (DMSO; Sigma-Aldrich), and injected into the vitreous humor in a total volume of 1 μL with a 33-gauge Exmire microsyringe (Ito Corporation). […] As a control, Luc siRNA-chol (17+2 nt) was used with identical dosages.

NLRP3 and IL18 mRNAs = assay: NLRP3 and IL18 mRNA in human RPE cells (real-time RT-PCR); format: cell-based
Source text: Transcript abundance was quantified by real-time RT-PCR using an Applied Biosystems 7900 HT Fast Real-Time PCR system by the 2^−ΔΔCt method.
Total RNA was extracted from tissues or cells using Trizol reagent (Invitrogen) according to manufacturer's recommendations, DNase treated and reverse transcribed (QuantiTect, Qiagen). The RT products (cDNA) were amplified by real-time quantitative PCR (Applied Biosystems 7900 HT Fast Real-Time PCR system) with Power SYBR green Master Mix. Oligonucleotide primers specific for human IL1B (forward 5′-[…]-3′ and reverse 5′-[…]-3′), human IL18 (forward 5′-[…]-3′ and reverse 5′-[…]-3′), human NLRP3 (forward 5′-[…]-3′ and reverse 5′-[…]-3′), human PYCARD (forward 5′-[…]-3′ and reverse 5′-[…]-3′), human VDAC1 (forward 5′-[…]-3′ and reverse 5′-[…]-3′), human VDAC2 (forward 5′-[…]-3′ and reverse 5′-[…]-3′), human VDAC3 (forward 5′-[…]-3′ and reverse 5′-[…]-3′), human 18S rRNA (forward 5′-[…]-3′ and reverse 5′-[…]-3′), mouse Myd88 (forward 5′-[…]-3′ and reverse 5′-[…]-3′), mouse Nlrp3 (forward 5′-[…]-3′ and reverse 5′-[…]-3′), mouse Il18 (forward 5′-[…]-3′ and reverse 5′-[…]-3′), and mouse 18S rRNA (forward 5′-[…]-3′ and reverse 5′-[…]-3′) were used. The QPCR cycling conditions were 50° C. for 2 min, 95° C. for 10 min followed by 40 cycles of a two-step amplification program (95° C. for 15 s and 58° C. for 1 min). At the end of the amplification, melting curve analysis was applied using the dissociation protocol from the Sequence Detection system to exclude contamination with unspecific PCR products. […] For negative controls, no RT products were used as templates in the QPCR and verified by the absence of gel-detected bands. Relative expressions of target genes were determined by the 2^−ΔΔCt method.

RPE [2] = assay: pAlu-induced RPE degeneration in wild-type mice, inhibitors given intravitreously; format: in vivo; conditions: WT mice, subretinal pAlu, inhibitor intravitreous, fundus photographs and ZO-1 flat mounts
Method: as §1, §2, §3, §4
as §5, with “dosages. […]” for “dosages.”

human RPE cells [3] = conditions: glycine 5 mM, LPS 5 μg/ml 6 h, ATP 25 μM
Method: (§6) MTS assays were performed using the CellTiter 96 AQueous One Solution Cell Proliferation Assay (Promega) according to the manufacturer's instructions. For examining the cytoprotective effect of glycine in Alu RNA induced cell death, human RPE cells were transfected with pNull/pAlu. At 6 h post-transfection the cells were incubated with complete media containing glycine (5 mM) or vehicle, and cell viability was assessed after 24 h. Similarly, human RPE cells primed with LPS (5 μg/ml for 6 h) were treated with ATP (25 μM) in the presence of glycine containing media (5 mM). 30 min post ATP cell viability was assessed as described above.

human RPE cells [4] = conditions: peptide 100 μM
Method: All cell cultures were maintained at 37° C. and 5% CO2. Primary mouse RPE cells were isolated as previously described (Yang et al., 2009) and grown in Dulbecco Modified Eagle Medium (DMEM) supplemented with 20% FBS and standard antibiotics concentrations. Primary human RPE cells were isolated as previously described (Yang et al., 2008) and maintained in DMEM supplemented with 10% FBS and antibiotics. HeLa cells were maintained in DMEM supplemented with 20% FBS and standard antibiotics concentrations. THP-1 cells were cultured in RPMI 1640 medium supplemented with 10% FBS and antibiotics.
as §6
MTS assays were performed using the CellTiter 96 AQueous One Solution Cell Proliferation Assay (Promega) according to the manufacturer's instructions.

Compound | Alu RNA-induced RPE degeneration (RPE [1]) | pAlu-induced RPE degeneration (RPE [2]) | further results
c1ccc([I+]c2ccccc2)cc1 [DPI, diphenyliodonium] | blocked | protects | pAlu-induced NLRP3 and IL18 mRNA upregulation (NLRP3 and IL18 mRNAs): blocks; also recorded: blocked pAlu-induced NLRP3 and IL18 mRNA upregulation
CC1(C)CC(NC(=O)C[P+](c2ccccc2)(c2ccccc2)c2ccccc2)CC(C)(C)N1[O] [Mito-TEMPO] | blocked |  | Alu RNA-induced RPE degeneration (RPE [1]; listed as MitoTempo): prevent
COC1=C(OC)C(=O)C(CCCCCCCCCC[P+](c2ccccc2)(c2ccccc2)c2ccccc2)=C(C)C1=O [MitoQ] | prevent; also recorded: blocked |  | 
NCC(=O)O [glycine] |  |  | human RPE cell death induced by LPS+ATP (human RPE cells [3]): inhibited; human RPE cell death induced by LPS+ATP (human RPE cells [3]; listed as Glycine): inhibits
Cbz-IETD-CH2F |  | blocked RPE degeneration | pAlu-induced cytotoxicity in human RPE cells (human RPE cells [4]): inhibited human RPE cell death; also recorded: protects; pAlu-induced RPE degeneration (RPE [2]; listed as Caspase-8 inhibitor): protects
DRQIKIWFQNRRMKWKK [control peptide] | did not do so |  | 
